Common to all, as to test: Cysteine liganding, probe competition
What all share (format): binding

The target of one assay is T1, RNF7 RING-box protein 2 (Homo sapiens, UniProt Q9UBF6).
T1 construct: Cells were resuspended in cold PBS on ice and sonicated with a probe sonicator to achieve lysis; endogenous in cells
T1 sequence (Q9UBF6 1-113): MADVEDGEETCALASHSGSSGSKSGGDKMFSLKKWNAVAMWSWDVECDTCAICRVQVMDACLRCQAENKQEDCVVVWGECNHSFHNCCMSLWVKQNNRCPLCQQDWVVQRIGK
In a few lines: (§1)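 Probe competition in native proteome: 5 mg/ml lysate, compound 1 hr 25° C, then desthiobiotin iodoacetamide (10 mM stock) 1 hr 25° C; acetone ppt, urea/DTT reduction, iodoacetamide alkylation, trypsin, streptavidin pull-down.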

The target in assay [1] is T2, TNFAIP3 Tumor necrosis factor alpha-induced protein 3 (Homo sapiens, UniProt P21580).
T2 construct: Cells were resuspended in cold PBS on ice and sonicated with a probe sonicator to achieve lysis; endogenous in cells
T2 sequence (P21580 1-790): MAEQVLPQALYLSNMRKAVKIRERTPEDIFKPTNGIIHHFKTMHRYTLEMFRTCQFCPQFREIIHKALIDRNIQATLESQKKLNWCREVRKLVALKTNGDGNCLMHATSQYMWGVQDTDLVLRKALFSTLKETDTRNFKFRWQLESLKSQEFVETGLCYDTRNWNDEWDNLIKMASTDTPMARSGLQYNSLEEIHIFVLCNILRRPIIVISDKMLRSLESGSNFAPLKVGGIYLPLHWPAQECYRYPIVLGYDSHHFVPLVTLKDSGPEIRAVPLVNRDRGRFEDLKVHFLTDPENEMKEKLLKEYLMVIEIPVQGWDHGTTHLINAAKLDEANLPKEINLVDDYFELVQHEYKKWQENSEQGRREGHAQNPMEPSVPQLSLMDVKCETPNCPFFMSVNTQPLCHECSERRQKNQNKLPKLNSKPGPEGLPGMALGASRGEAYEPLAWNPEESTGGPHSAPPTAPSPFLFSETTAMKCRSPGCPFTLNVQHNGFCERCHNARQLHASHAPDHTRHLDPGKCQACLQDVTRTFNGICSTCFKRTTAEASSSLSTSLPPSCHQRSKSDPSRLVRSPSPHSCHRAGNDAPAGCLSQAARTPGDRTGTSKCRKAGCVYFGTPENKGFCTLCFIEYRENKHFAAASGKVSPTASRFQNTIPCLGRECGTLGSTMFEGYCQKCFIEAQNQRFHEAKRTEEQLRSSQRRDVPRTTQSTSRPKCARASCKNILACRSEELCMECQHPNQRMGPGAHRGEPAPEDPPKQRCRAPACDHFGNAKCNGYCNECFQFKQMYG
In a few lines:
as §1

In assay [2] the target is T3, TUBA3D Tubulin alpha-3C/D chain (Homo sapiens, UniProt P0DPH8).
T3 construct: Cells were resuspended in cold PBS on ice and sonicated with a probe sonicator to achieve lysis; endogenous in cells
T3 sequence (P0DPH8 whole entry, looked up): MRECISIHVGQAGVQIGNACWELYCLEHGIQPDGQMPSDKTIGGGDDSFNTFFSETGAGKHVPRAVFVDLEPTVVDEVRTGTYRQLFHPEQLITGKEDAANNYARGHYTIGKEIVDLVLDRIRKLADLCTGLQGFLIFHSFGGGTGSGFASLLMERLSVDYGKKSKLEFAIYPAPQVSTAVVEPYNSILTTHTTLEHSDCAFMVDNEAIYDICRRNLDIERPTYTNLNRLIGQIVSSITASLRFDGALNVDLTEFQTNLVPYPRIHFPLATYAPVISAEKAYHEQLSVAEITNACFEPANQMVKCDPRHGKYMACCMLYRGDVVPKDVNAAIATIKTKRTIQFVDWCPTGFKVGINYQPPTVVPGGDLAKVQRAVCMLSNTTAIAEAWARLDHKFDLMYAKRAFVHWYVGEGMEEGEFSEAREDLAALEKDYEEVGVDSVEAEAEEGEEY
Summed up:
as §1

The mark [3] stands for this setting: TNFAIP3 Res# 54, uniprot P21580.

Take `COc1ccc2c(c1)CCCN2C(=O)CCl` [KB02]: the Liganded entry at RNF7 RING-box protein 2 (RNF7 Res# 88, uniprot Q9UBF6) is listed as “YES”; in assay [1] (setting [3]), “YES”; in assay [1] (TNFAIP3 Res# 536, uniprot P21580) it was “YES”; in assay [1] (TNFAIP3 Res# 579, uniprot P21580), “YES”; in assay [2] (TUBA3D Res# 4, uniprot Q13748) it was “YES”; in assay [2] (TUBA3D Res# 20, uniprot Q13748), “YES”.

As for `O=C(CCl)Nc1cc(C(F)(F)F)cc(C(F)(F)F)c1` [KBO3], the “100 Max” value at RNF7 RING-box protein 2 (uniprot Q9UBF6) is given as 20.4. The 100 ave on RNF7 RING-box protein 2 (uniprot Q9UBF6) was determined as 20.4. Moreover, the Liganded entry in assay [1] (setting [3]) was “YES”; in assay [2] (TUBA3D Res# 4, uniprot Q13748), “YES”; in assay [2] (TUBA3D Res# 20, uniprot Q13748), “YES”.

The values above are taken from patent publication US20200239530A1, “COMPOUNDS AND METHODS OF MODULATING PROTEIN DEGRADATION” (Vividion Therapeutics, Inc., priority 2017, published 2020).
